Test results as given in BindingDB's records for doi:10.7270/Q23B5XKP (Vanderbilt Screening Center for GPCRs, Ion Channels and …, 2009).

molecular target: T1, Solute carrier family 12 member 5 (Homo sapiens, UniProt Q9H2X9); assay: modulation of KCC2 K-Cl transport – cell-based, assay 2, dose response (AID 1723); conditions: not given
T1 sequence (Q9H2X9 whole entry): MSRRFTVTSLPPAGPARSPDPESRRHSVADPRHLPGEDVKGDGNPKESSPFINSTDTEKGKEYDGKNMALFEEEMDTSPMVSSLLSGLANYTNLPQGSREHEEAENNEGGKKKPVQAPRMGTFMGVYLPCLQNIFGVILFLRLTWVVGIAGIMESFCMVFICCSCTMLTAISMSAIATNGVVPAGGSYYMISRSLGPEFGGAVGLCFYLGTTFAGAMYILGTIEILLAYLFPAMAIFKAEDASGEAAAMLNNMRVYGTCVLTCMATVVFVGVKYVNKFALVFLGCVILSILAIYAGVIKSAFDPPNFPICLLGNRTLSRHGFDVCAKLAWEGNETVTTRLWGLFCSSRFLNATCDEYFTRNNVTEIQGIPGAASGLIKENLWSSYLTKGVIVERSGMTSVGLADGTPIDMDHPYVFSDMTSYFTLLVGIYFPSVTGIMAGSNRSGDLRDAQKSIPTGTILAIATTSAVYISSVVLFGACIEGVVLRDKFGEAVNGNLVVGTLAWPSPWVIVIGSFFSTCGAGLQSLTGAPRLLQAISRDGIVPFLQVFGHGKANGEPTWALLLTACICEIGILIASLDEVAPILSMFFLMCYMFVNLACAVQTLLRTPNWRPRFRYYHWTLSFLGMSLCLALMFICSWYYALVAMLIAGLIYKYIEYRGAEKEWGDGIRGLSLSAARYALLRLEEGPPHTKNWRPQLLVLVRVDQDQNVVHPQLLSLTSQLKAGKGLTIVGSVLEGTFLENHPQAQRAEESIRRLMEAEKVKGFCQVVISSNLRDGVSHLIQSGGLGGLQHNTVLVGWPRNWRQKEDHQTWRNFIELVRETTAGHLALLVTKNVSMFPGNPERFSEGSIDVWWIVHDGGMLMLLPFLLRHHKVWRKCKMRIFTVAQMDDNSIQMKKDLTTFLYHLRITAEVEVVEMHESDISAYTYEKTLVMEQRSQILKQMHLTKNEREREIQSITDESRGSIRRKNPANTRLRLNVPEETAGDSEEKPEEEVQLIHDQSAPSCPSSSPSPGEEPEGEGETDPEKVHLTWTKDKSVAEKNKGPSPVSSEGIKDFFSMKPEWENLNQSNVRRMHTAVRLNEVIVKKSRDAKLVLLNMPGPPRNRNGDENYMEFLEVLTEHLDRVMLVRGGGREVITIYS

EC50 [µM]	Structure (SMILES)
21	Cc1[nH]n2c(=O)cc(C(C)C)nc2c1-c1ccccc1
0.616	O=[N+]([O-])c1ccc(-c2cn(-c3ccccc3F)c(=S)[nH]2)cc1
6.1	S=c1nc(-c2ccc3c(c2)CCO3)cc[nH]1
11.8	O=C1OC(c2ccc(O)cc2)(c2ccc(O)cc2)c2ccccc21
0.401	COc1ccc(Cn2c(=S)[nH]c3ccccc32)cc1 [1-(4-methoxybenzyl)-1H-benzimidazole-2-thiol]
10.1	S=C(NCCc1ccccc1)NN=Cc1cccc(Cl)c1Cl [1-[(2,3-dichlorobenzylidene)amino]-3-phenethyl-thiourea]
6.66	Fc1cccc(F)c1C=NNC(=S)Nc1cccnc1 [1-[(2,6-difluorobenzylidene)amino]-3-(3-pyridyl)thiourea]
7.58	NC(=S)NN=C1C(=O)N(Cc2ccc(F)cc2)c2ccccc21 [1-[(Z)-[1-[(4-fluorophenyl)methyl]-2-oxidanylidene-indol-3-ylidene]amino]thiourea]
2.86	N=C1SCC(=O)N1c1ncc(Cc2cccc(Cl)c2)s1 [2-azanylidene-3-[5-[(3-chlorophenyl)methyl]-1,3-thiazol-2-yl]-1,3-thiazolidin-4-one]
139	O=C(NC(=S)Nc1nc(-c2cccc([N+](=O)[O-])c2)cs1)c1ccccc1Cl [2-chloranyl-N-[[4-(3-nitrophenyl)-1,3-thiazol-2-yl]carbamothioyl]benzamide]
7.89	CCOc1ccc2nc(Sc3cc(O)n(-c4cccc(OC)c4)c3O)sc2c1 [3-(6-Ethoxy-benzothiazol-2-ylsulfanyl)-1-(3-methoxy-phenyl)-pyrrolidine-2,5-dione]
1.58	CCOc1cccc(C(=O)NC(=S)Nc2cccc(C)c2)c1 [3-ethoxy-N-(m-tolylthiocarbamoyl)benzamide]
0.515	COC(=O)[C@@H](NC(=O)O[C@@H]1C(=O)c2ccc(OC)cc2O[C@H]1c1cccc(C(F)(F)F)c1)C(C)C [(2S)-2-[[(2S,3S)-4-keto-7-methoxy-2-[3-(trifluoromethyl)phenyl]chroman-3-yl]oxycarbonylamino]-3-methyl-butyric acid methyl ester]
31.1	Oc1ccccc1CN=Nc1nc2ccccc2o1 [(6E)-6-[(1,3-benzoxazol-2-ylhydrazo)methylidene]-1-cyclohexa-2,4-dienone]
11.2	Cc1cccc(N2CCN(C(=O)CCCn3c(=S)[nH]c4cc5c(cc4c3=O)OCO5)CC2)c1C [MLS000095366]
15.6	CC(C)c1ccc(OCC(=O)NNC(=O)c2cnccn2)cc1 [MLS000332605]
62.4	O=C(C=Cc1ccccc1)CC(=O)c1ccccc1O [MLS000627068]
726	CC(=NNC(=O)c1ccc2c(c1)OCO2)c1ccc(Br)s1 [MLS000666595]
7.99	COc1cc(NC(=S)NC(=O)c2ccco2)ccc1NC(=O)C(C)C [MLS000672338]
1.19	CC(=O)c1cccc(NC(=S)NC(=O)c2ccc(C)cc2)c1 [MLS000687464]
13.3	O=c1c2ccccc2[nH]c(=S)n1CCN1CCC(=C(c2ccc(F)cc2)c2ccc(F)cc2)CC1 [SMR000058550]

same assay, conditions: inactive by the depositor's call

EC50 [µM]	Structure (SMILES)
0.807	Cc1ccc(-c2n[nH]c(=S)n2NC=CCc2ccccc2[N+](=O)[O-])cc1
1.34	COc1ccccc1N1CCN(C(=S)NC(=O)/C=C/c2ccccc2)CC1 [(E)-N-[4-(2-Methoxy-phenyl)-piperazine-1-carbothioyl]-3-phenyl-acrylamide]
0.124	O=C(NC(=S)Nc1cccc2cccnc12)c1cccs1 [MLS000688132]
